Where two headings read alike, the source gives them in different places.
Columns and labels:
[1] = system: endogenous NAMPT in U2OS cells; test: Cellular NAD+ modulation assay (NAD/NADH-Glo, U2OS cells); format: cell-based; conditions: Homo sapiens; for maximal fold induction: read-out: Cellular Emax
How it was run: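 NAD/NADH-Glo luminescence quantified NAD+ after acid treatment (60 °C, 15 min) and neutralization of DTAB lysates. Beforehand, U2OS cells seeded 16 h earlier received compound concentration series for 24 h at 37 °C. Values given as half-maximal activation concentration (EC50) and maximal fold change versus DMSO (Emax).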

[2] = biological target: T1, human enzyme NAMPT (full length) (Homo sapiens, UniProt P43490); test: NMN fluorescence biochemical assay (stimulation of NMN synthesis by NAMPT); conditions: for EC50: concentration giving half-maximal activation, read-out: Enzymatic EC50; for Enzymatic Emax: fold change of maximal activation compared to DMSO
T1 construct: human enzyme NAMPT (full length)
T1 sequence (P43490 whole entry): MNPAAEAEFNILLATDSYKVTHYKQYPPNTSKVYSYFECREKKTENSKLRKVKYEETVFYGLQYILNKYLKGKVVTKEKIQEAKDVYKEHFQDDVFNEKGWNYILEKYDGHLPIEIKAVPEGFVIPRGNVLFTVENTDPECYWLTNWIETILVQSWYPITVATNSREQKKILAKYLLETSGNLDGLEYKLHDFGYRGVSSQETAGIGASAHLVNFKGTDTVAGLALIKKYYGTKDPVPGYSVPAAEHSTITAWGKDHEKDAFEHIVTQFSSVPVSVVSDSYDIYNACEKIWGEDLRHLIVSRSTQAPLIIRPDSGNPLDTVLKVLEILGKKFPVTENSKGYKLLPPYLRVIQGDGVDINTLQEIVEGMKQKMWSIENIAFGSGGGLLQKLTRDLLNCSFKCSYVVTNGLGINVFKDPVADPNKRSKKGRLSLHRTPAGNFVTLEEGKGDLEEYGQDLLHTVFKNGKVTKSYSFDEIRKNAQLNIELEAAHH
How it was run: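 Full-length human NAMPT (100 nM) was preincubated 15 min at 37 °C with compound in 50 mM Tris-HCl pH 7.5, 10 mM MgCl2, 2 mM DTT, then reacted 1 h at 37 °C with 50 μM NAM, 100 μM PRPP, 4 mM ATP (stated solution concentrations). NMN was derivatised with acetophenone/KOH then formic acid and read at Ex/Em 382/445 nm; EC50 and Emax (fold over DMSO) reported.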

[3] = 24 hours incubation with compound
[4] = NMN synthesis by purified human NAMPT (100 nM)
[5] = 24 hours incubation, cellular NAD+
[6] = NMN fluorescence assay, purified human NAMPT 100 nM

Row | SMILES | EC50 [1, 3] [nM] | EC50 [2, 4] [nM] | Enzymatic Emax [2] | EC50 [1, 5] [nM] | EC50 [2, 6] [nM] | maximal fold induction [1, 3] | maximal fold induction [1, 5]
1 | O=C1c2cccnc2CN1Cc1ccc(O)cc1 [Compound 39, 6-(4-hydroxybenzyl)-6,7-dihydro-5H-pyrrolo[3,4-b]pyridin-5-one] | 5000 to 50000 | ≥ 5000 | B (3≥B>2) | – | – | 1.2 to 1.5 | –
2 | O=C1c2ccc(N3CCOCC3)cc2C(Cc2ccccc2)N1Cc1ccc2[nH]c(=O)oc2c1 (centres unmarked) [Compound 97, 6-((3-benzyl-5-morpholino-1-oxoisoindolin-2-yl)methyl)benzo[d]oxazol-2(3H)-one] | 500 to 5000 | 500 to 5000 | A (A>3) | – | – | > 1.5 | –
3 | CC1c2cc(CN3CC4(COC4)C3)ccc2C(=O)N1Cc1ccc2[nH]c(=O)oc2c1 (single isomer, unassigned) [Compound 187] | 500 to 5000 | 500 to 5000 | B (3≥B>2) | – | – | > 1.5 | –
4 | Cn1ncc(Cl)c1CC1c2ccccc2C(=O)N1C/C(F)=C/c1nn[nH]c1F (centres unmarked) [Compound 601, (Z)-3-((4-chloro-1-methyl-1H-pyrazol-5-yl)methyl)-2-(2-fluoro-3-(5-fluoro-1H-1,2,3-triazol-4-yl)allyl)isoindolin-1-one] | – | – | A (A>3) | < 500 | 500 to 5000 | – | 1.2 to 1.5
5 | Cc1n[nH]cc1C#CCN1C(=O)c2ccccc2C1Cc1c(Cl)cnn1C (centres unmarked) [Compound 478, 3-((4-chloro-1-methyl-1H-pyrazol-5-yl)methyl)-2-(3-(3-methyl-1H-pyrazol-4-yl)prop-2-yn-1-yl)isoindolin-1-one] | – | – | B (3≥B>2) | 500 to 5000 | 500 to 5000 | – | > 1.5
6 | CCOc1ccccc1CC1c2ccccc2C(=O)N1Cc1ccc2[nH]c(=O)oc2c1 (centres unmarked) [Compound 166, 6-((1-(2-ethoxybenzyl)-3-oxoisoindolin-2-yl)methyl)benzo[d]oxazol-2(3H)-one] | 500 to 5000 | 500 to 5000 | B (3≥B>2) | – | – | 1.2 to 1.5 | –
7 | N#Cc1ccccc1CC1c2ccccc2C(=O)N1Cc1ccc(O)c(F)c1 (centres unmarked) [Compound 195, 2-((2-(3-fluoro-4-hydroxybenzyl)-3-oxoisoindolin-1-yl)methyl)benzonitrile] | < 500 | < 500 | B (3≥B>2) | – | – | 1.2 to 1.5 | –
8 | Cc1nc(Cl)c(CC2c3ccccc3C(=O)N2CC2CC3(CNC(=O)O3)C2)n1C (centres unmarked) [Compound 526, 2-((1-((4-chloro-1,2-dimethyl-1H-imidazol-5-yl)methyl)-3-oxoisoindolin-2-yl)methyl)-5-oxa-7-azaspiro[3.4]octan-6-one] | – | – | B (3≥B>2) | 500 to 5000 | 500 to 5000 | – | > 1.5
9 | Cn1c2ccccc2c(=O)n1Cc1ccc(O)cc1 [Compound 23, 2-(4-hydroxybenzyl)-1-methyl-1,2-dihydro-3H-indazol-3-one] | 500 to 5000 | ≥ 5000 | A (A>3) | – | – | > 1.5 | –
10 | O=C1c2ccccc2C(CC2=CCOCC2)N1Cc1ccc2[nH]c(=O)oc2c1 (centres unmarked) [Compound 225, 6-((1-((3,6-dihydro-2H-pyran-4-yl)methyl)-3-oxoisoindolin-2-yl)methyl)benzo[d]oxazol-2(3H)-one] | 500 to 5000 | 500 to 5000 | A (A>3) | – | – | > 1.5 | –
11 | O=C1c2cnccc2CN1Cc1ccc(O)cc1 [Compound 42, 2-(4-hydroxybenzyl)-1,2-dihydro-3H-pyrrolo[3,4-c]pyridin-3-one] | 5000 to 50000 | ≥ 5000 | A (A>3) | – | – | > 1.5 | –
12 | CNC(=O)Nc1ccc(CN2Cc3ccccc3C2=O)cc1 [Compound 105, 1-methyl-3-(4-((1-oxoisoindolin-2-yl)methyl)phenyl)urea] | 500 to 5000 | ≥ 5000 | B (3≥B>2) | – | – | > 1.5 | –
13 | CC1c2cc(Cc3ccccc3)ccc2C(=O)N1Cc1ccc2[nH]c(=O)oc2c1 (centres unmarked) [Compound 113, 6-((5-benzyl-3-methyl-1-oxoisoindolin-2-yl)methyl)benzo[d]oxazol-2(3H)-one] | 500 to 5000 | 500 to 5000 | B (3≥B>2) | – | – | 1.2 to 1.5 | –
14 | Cc1nn(C)c(C#N)c1CC1c2ccccc2C(=O)N1CC1CC2(CNC(=O)O2)C1 (centres unmarked) [Compound 479, 1,3-dimethyl-4-((3-oxo-2-((6-oxo-5-oxa-7-azaspiro[3.4]octan-2-yl)methyl)isoindolin-1-yl)methyl)-1H-pyrazole-5-carbonitrile] | – | – | B (3≥B>2) | < 500 | 500 to 5000 | – | > 1.5
15 | Cc1ccccc1CC1c2cccnc2C(=O)N1Cc1ccc2[nH]c(=O)oc2c1 (centres unmarked) [Compound 160, 6-((5-(2-methylbenzyl)-7-oxo-5,7-dihydro-6H-pyrrolo[3,4-b]pyridin-6-yl)methyl)benzo[d]oxazol-2(3H)-one] | 500 to 5000 | 500 to 5000 | B (3≥B>2) | – | – | > 1.5 | –
16 | O=C1NCC2(CC(CN3C(=O)c4ccccc4C3Cc3nnsc3Cl)C2)O1 (centres unmarked) [Compound 538, 2-((1-((5-chloro-1,2,3-thiadiazol-4-yl)methyl)-3-oxoisoindolin-2-yl)methyl)-5-oxa-7-azaspiro[3.4]octan-6-one] | – | – | C (2≥C) | 500 to 5000 | ≥ 5000 | – | > 1.5
17 | COc1cnc(CN2C(=O)c3ccccc3C2Cc2c(Cl)cnn2C)cc1F (centres unmarked) [Compound 555, 3-((4-chloro-1-methyl-1H-pyrazol-5-yl)methyl)-2-((4-fluoro-5-methoxypyridin-2-yl)methyl)isoindolin-1-one] | – | – | B (3≥B>2) | < 500 | ≥ 5000 | – | > 1.5

More lines, main results first:

Row | EC50 [1, 3] [nM] | EC50 [2, 4] [nM] | Enzymatic Emax [2] | EC50 [1, 5] [nM] | EC50 [2, 6] [nM] | SMILES | maximal fold induction [1, 3] | maximal fold induction [1, 5]
18 | – | – | B (3≥B>2) | 5000 to 50000 | < 500 | O=C1c2ccccc2C(Cc2nn(C3CC4(COC4)C3)cc2Cl)N1Cc1ccc2[nH]nnc2c1 (centres unmarked) [Compound 412, 2-((1H-benzo[d][1,2,3]triazol-5-yl)methyl)-3-((4-chloro-1-(2-oxaspiro[3.3]heptan-6-yl)-1H-pyrazol-3-yl)methyl)isoindolin-1-one] | – | 1.2 to 1.5
19 | – | – | A (A>3) | < 500 | < 500 | Cc1nn(C)c(C#N)c1CC1c2ccccc2C(=O)N1Cc1ccc2[nH]nnc2c1 (centres unmarked) [Compound 341, 4-((2-((1H-benzo[d][1,2,3]triazol-5-yl)methyl)-3-oxoisoindolin-1-yl)methyl)-1,3-dimethyl-1H-pyrazole-5-carbonitrile] | – | > 1.5
20 | – | – | B (3≥B>2) | < 500 | < 500 | Cn1c(CC2c3ccccc3C(=O)N2CC2CC3(CNC(=O)O3)C2)c(Cl)ccc1=O (centres unmarked) [Compound 467, 2-((1-((3-chloro-1-methyl-6-oxo-1,6-dihydropyridin-2-yl)methyl)-3-oxoisoindolin-2-yl)methyl)-5-oxa-7-azaspiro[3.4]octan-6-one] | – | > 1.5
21 | 500 to 5000 | < 500 | B (3≥B>2) | – | – | Cc1c(C#N)cccc1CC1c2ccccc2C(=O)N1Cc1ccc2[nH]c(=O)oc2c1 (centres unmarked) [Compound 174, 2-methyl-3-((3-oxo-2-((2-oxo-2,3-dihydrobenzo[d]oxazol-6-yl)methyl)isoindolin-1-yl)methyl)benzonitrile] | > 1.5 | –
22 | – | – | A (A>3) | < 500 | < 500 | O=C1c2ccccc2C(Cc2ncccc2Br)N1Cc1ccc2[nH]nnc2c1 (centres unmarked) [Compound 331, 2-((1H-benzo[d][1,2,3]triazol-5-yl)methyl)-3-((3-bromopyridin-2-yl)methyl)isoindolin-1-one] | – | > 1.5
23 | – | – | A (A>3) | < 500 | < 500 | COCc1ccc2c(c1)C(Cc1c(Cl)cnn1C)N(Cc1ccc3[nH]nnc3c1)C2=O (centres unmarked) [Compound 436, 2-((1H-benzo[d][1,2,3]triazol-5-yl)methyl)-3-((4-chloro-1-methyl-1H-pyrazol-5-yl)methyl)-5-(methoxymethyl)isoindolin-1-one] | – | > 1.5
24 | < 500 | 500 to 5000 | A (A>3) | – | – | N#Cc1ccncc1CC1c2ccccc2C(=O)N1Cc1ccc2[nH]c(=O)oc2c1 (centres unmarked) [Compound 203, 3-((3-oxo-2-((2-oxo-2,3-dihydrobenzo[d]oxazol-6-yl)methyl)isoindolin-1-yl)methyl) isonicotinonitrile] | > 1.5 | –
25 | – | – | B (3≥B>2) | < 500 | < 500 | Cn1c(CC2c3ccccc3C(=O)N2Cc2ccc3[nH]nnc3c2)c(Cl)ccc1=O (centres unmarked) [Compound 381, 2-((1H-benzo[d][1,2,3]triazol-5-yl)methyl)-3-((3-chloro-1-methyl-6-oxo-1,6-dihydropyridin-2-yl)methyl)isoindolin-1-one] | – | > 1.5
26 | < 500 | < 500 | A (A>3) | – | – | N#Cc1cccc(F)c1CC1c2ccccc2C(=O)N1Cc1ccc2[nH]c(=O)oc2c1 (centres unmarked) [Compound 170, 3-fluoro-2-((3-oxo-2-((2-oxo-2,3-dihydrobenzo[d]oxazol-6-yl)methyl)isoindolin-1-yl)methyl)benzonitrile] | > 1.5 | –

Source: patent US20260078130A1, “NAMPT MODULATORS, PREPARATIONS, AND USES THEREOF” (SIRONAX LTD., priority 2022, published 2026)
